# Measured values reported in US20100209513A1, “PHARMACEUTICAL COMPOSITION CONTAINING MICRONIZED PARTICLES OF NAPHTHOQUINONE-BASED COMPOUND” (priority 2007, published 2010).
# Columns and labels:
# Type in all cases: in vivo
# [1] = Body weight change in ob/ob mice, micronized particles of 15,16-dihydrotanshinone (Example 12); settings: ob/ob male mice; 400 mg/kg plus sodium lauryl sulfate in admixture with the feed for 20 days
# Procedure: In order to confirm therapeutic efficacy of micronized particles of 15,16-dihydrotanshinone, an animal experiment was carried out as follows.
# (§1) For this purpose, 10-week-old ob/ob male mice (Jackson Lab) as an obese mouse model of type 2 diabetes were purchased from Orient Co., Ltd., Korea and were allowed to acclimate to a new environment of the breeding room for 10 days prior to experiments. Animals were fed a solid feed (P5053, Labdiet) as a laboratory animal chow. The ob/ob male mice were housed and allowed to acclimate to a new environment for 10 days, in a breeding room maintained at a temperature of 22±2° C., humidity of 55±5%, and a 12-h light/dark (L/D) cycle (light from 8:00 am. to 8:00 p.m.). According to a randomized blocks design, the thus-acclimated animals were randomly divided into four groups, each consisting of 7 animals: a control group with no administration of any drug sample, a group with administration of a vehicle (sodium lauryl sulfate) only, a group with administration of 15,16-dihydrotanshinone (before microparticulation, 400 mg/kg) plus sodium lauryl sulfate, and a group with administration of micronized particles of 15,16-dihydrotanshinone (400 mg/kg) plus sodium lauryl sulfate. Each group of animals was given drug samples in admixture with the feed for 20 days. […]
# [2] = Body weight change in DIO C57BL/6 mice, effect of phosphatidylcholine on micronized cryptotanshinone (Example 8); settings: DIO C57BL/6 male mice; cryptotanshinone 150 mg/kg PO for 40 days
# Procedure: In order to ascertain whether phosphatidylcholine (PC) which is a phospholipid maintains a particle size of micronized particles of cryptotanshinone, prevents the particle agglomeration or aggregation, and enhances therapeutic efficacy of cryptotanshinone, an animal experiment was carried out as follows.
# For this purpose, 5-week-old C57BL/6 male mice were purchased from Orient Co., Ltd., Korea and were allowed to acclimate to a new environment of the breeding room for 10 days prior to experiments. A DIO (diet-induced obesity) mouse model was established by supplying to animals high-fat diet for 8 weeks. 13-week-old male mice weighing 40 g were used in experiments. Animals were fed a high-fat feed (45 kcal % fat) (D12451, Research Diets Inc., New Brunswick, N.J.) as a laboratory animal chow. The DIO mice were housed and allowed to acclimate to a new environment for 10 days, in a breeding room maintained at a temperature of 22±2° C., humidity of 55±5%, and a 12-h light/dark (L/D) cycle (light from 8:00 a.m. to 8:00 p.m.). […]
# [3] = Body weight change in ob/ob mice, effect of calcium silicate on micronized cryptotanshinone (Example 9); settings: ob/ob male mice; cryptotanshinone 400 mg/kg in admixture with the feed for 20 days
# Procedure: In order to ascertain whether calcium silicate maintains a particle size of micronized particles of cryptotanshinone, prevents the particle agglomeration or aggregation, and enhances therapeutic efficacy of cryptotanshinone, an animal experiment was carried out as follows.
# as §1, with “10-week-old” for “For this purpose, 10-week-old”, “(calcium silicate)” for “(sodium lauryl sulfate)”, “cryptotanshinone (400 mg/kg),” for “15,16-dihydrotanshinone (before microparticulation, 400 mg/kg) plus sodium lauryl sulfate,”, “cryptotanshinone” for “micronized particles of 15,16-dihydrotanshinone”, “calcium silicate.” for “sodium lauryl sulfate.”
# [4] = Body weight change in ob/ob mice, effect of chitosan on micronized cryptotanshinone (Example 10); settings: ob/ob male mice; cryptotanshinone 400 mg/kg in admixture with the feed for 20 days
# Procedure: In order to ascertain whether chitosan maintains a particle size of micronized particles of cryptotanshinone, prevents the particle agglomeration or aggregation, and enhances therapeutic efficacy of cryptotanshinone, an animal experiment was carried out as follows.
# (§2) 10-week-old ob/ob male mice (Jackson Lab) as an obese mouse model of type 2 diabetes were purchased from Orient Co., Ltd., Korea and were allowed to acclimate to a new environment of the breeding room for 10 days prior to experiments. Animals were fed a solid feed (P5053, Labdiet) as a laboratory animal chow. The ob/ob male mice were housed and allowed to acclimate to a new environment for 10 days, in a breeding mom maintained at a temperature of 22±2° C., humidity of 55±5%, and a 12-h light/dark (L/D) cycle (light from 8:00 am. to 8:00 p.m.). According to a randomized blocks design, the thus-acclimated animals were randomly divided into four groups, each consisting of 7 animals: a control group with no administration of any drug sample, a group with administration of a vehicle (chitosan) only, a group with administration of cryptotanshinone (400 mg/kg), and a group with administration of cryptotanshinone (400 mg/kg) plus chitosan. Each group of animals was given drug samples in admixture with the feed for 20 days. All animals were allowed ad libitum access to water and standard laboratory chow throughout the study period.
# [5] = Body weight change in ob/ob mice, effect of sucrose palmitate on micronized cryptotanshinone (Example 11); settings: cryptotanshinone 400 mg/kg in admixture with the feed for 20 days
# Procedure: In order to ascertain whether sucrose palmitate which is an emulsifier maintains a particle size of micronized particles of cryptotanshinone, prevents the particle agglomeration or aggregation, and enhances therapeutic efficacy of cryptotanshinone, an animal experiment was carried out as follows.
# as §2, with “room” for “mom”, “(sucrose palmitate)” for “(chitosan)”, “sucrose palmitate.” for “chitosan.”, “All animals were allowed ad libitum access to water and standard laboratory chow throughout the study period.” left out
# [6] = Body weight change in ob/ob mice, intestine-targeted formulation of micronized β-lapachone (Example 14); settings: ob/ob male mice; 200 mg/kg in terms of β-lapachone content PO once a day
# Procedure: In order to confirm therapeutic efficacy of β-lapachone {7,8-dihydro-2,2-dimethyl-2H-naphtho(2,3-b)dihydropyran-7,8-dione} when micronized particles of β-lapachone was prepared into a formulation of an intestine-targeted drug delivery system, an animal experiment was carried out as follows.
# 0.2 g of sodium lauryl sulfate (SLS) and 10 g of β-lapachone were mixed and ground. To the resulting mixture were added approximately an equal amount of a water-soluble polymer (hydroxypropyl methylcellulose) relative to β-lapachone, and vehicles such as Croscarmellose sodium and light anhydrous silicic acid, followed by spray drying. Then, the spray-dried product was added to an ethanol solution containing about 20% by weight of Eudragit S-100 as a pH-sensitive polymer and about 2% by weight of PEG #6,000 as a plasticizer, and the mixture was then spray-dried to prepare intestine-targeted formulations.
# In order to confirm the efficacy of each formulation, 200 mg/kg of the formulation in terms of β-lapachone content was administered to ob/ob mice once a day and changes in the body weight (BW) of animals were examined.
# For this purpose, 10-week-old ob/ob male mice (Jackson Lab) as an obese mouse model of type 2 diabetes were purchased from Orient Co., Ltd., Korea and were allowed to acclimate to a new environment of the breeding room for 10 days prior to experiments. […]
# [7] = Body weight change in ob/ob mice, micronized particles of tanshinone IIA (Example 13); settings: ob/ob male mice; 400 mg/kg plus sodium lauryl sulfate in admixture with the feed for 20 days
# Procedure: In order to confirm therapeutic efficacy of micronized particles of tanshinone IIA, an animal experiment was carried out as follows.
# For this purpose, 10-week-old ob/ob male mice (Jackson Lab) as an obese mouse model of type 2 diabetes were purchased from Orient Co., Ltd., Korea and were allowed to acclimate to a new environment of the breeding room for 10 days prior to experiments. Animals were fed a solid feed (P5053, Labdiet) as a laboratory animal chow. The ob/ob male mice were housed and allowed to acclimate to a new environment for 10 days, in a breeding room maintained at a temperature of 22±2° C., humidity of 55±5%, and a 12-h light/dark (L/D) cycle (light from 8:00 am. to 8:00 p.m.). According to a randomized blocks design, the thus-acclimated animals were randomly divided into four groups, each consisting of 7 animals: a control group with no administration of any drug sample, a group with administration of a vehicle (sodium lauryl sulfate) only, a group with administration of tanshinone IIA (before microparticulation, 400 mg/kg) plus sodium lauryl sulfate, and a group with administration of micronized particles of tanshinone IIA (400 mg/kg) plus sodium lauryl sulfate. Each group of animals was given drug samples in admixture with the feed for 20 days. All animals were allowed ad libitum access to water and standard laboratory chow throughout the study period.
smiles,measurement,setting,value
"Cc1cccc2c3c(ccc12)C1=C(C(=O)C3=O)C(C)CO1 (stereo not shown) [15,16-dihydrotanshinone]",Final BW,[1],55.4 ± 3.1 g
"C[C@H]1COC2=C1C(=O)C(=O)c1c2ccc2c1CCCC2(C)C [Cryptotanshinone alone, cryptotanshinone]",Final BW,[2],40.2 ± 1.3 g
same,Final BW,[3],53.2 ± 1.3 g
same,Final BW,[4],53.2 ± 1.3 g
same,Final BW,[5],53.2 ± 1.3 g
"CC1(C)CCC2=C(O1)c1ccccc1C(=O)C2=O [Simply finely-divided powder, β-lapachone]",Final BW,[6],57.5 ± 1.3 g
"Cc1coc2c1C(=O)C(=O)c1c-2ccc2c1CCCC2(C)C [Tanshinone IIA before microparticulation, tanshinone IIA]",Final BW,[7],58.4 ± 3.3 g
